Laboratory results: paper PMC7915026, “Sulfaguanidine Hybrid with Some New Pyridine-2-One Derivatives: Design, Synthesis, and Antimicrobial Activity against Multidrug-Resistant Bacteria as Dual DNA Gyrase and DHFR Inhibitors” (Antibiotics, 2021)
Values after ≈ are worked out from the molar mass of the structure shown. Like-named read-outs stand apart in the source and are kept apart here.

Key:
[1] = target: E. coli DHFR (dihydrofolate reductase) (Escherichia coli, UniProt P0ABQ4); experiment: In vitro DHFR enzymatic assay; assay type: biochemical
P. aeruginosa ATCC 27853 [2] = experiment: MIC and MBC determination; assay type: cell-based; conditions: Pseudomonas aeruginosa, ATCC27853, P. aeruginosa
E. coli ATCC 25922 = experiment: MIC and MBC determination; assay type: cell-based; conditions: Escherichia coli, ATCC25922, E. coli
[3] = test system: F. oxysporum (RCMB 008002); experiment: MIC and MFC determination; assay type: cell-based
[4] = test system: Salmonella typhi (S. typhi ATCC 6539); experiment: microbe, parasite or virus in culture; assay type: cell-based; conditions: Salmonella enterica, Salmonella typhi
[5] = test system: CD4+ and CD8+ T lymphocytes; experiment: In vivo T lymphocyte subsets from peripheral blood, flow cytometry; conditions: mice
Source text: Activation of immune cells as CD4^+ and CD8^+ T cells is one possible mechanism of a drug’s immune stimulus activity. An increase in these cells is thought to be a good indicator of an active immune response to infections. So, our work extended to study the effect of the most promising derivatives (2d, 8, and 11) on T lymphocyte subsets (CD4^+ and CD8^+) from peripheral blood, and determined the relative level in model mice that analyzed by flow cytometry after the period of treating.
(§1) In vitro intracellular killing activities for the most promising six derivatives 2a, 2b, 2d, 3a, 8, and 11 were performed according to reported methods.

B. subtilis ATCC 6633 [6] = experiment: MIC and MBC determination; assay type: cell-based; conditions: Bacillus subtilis, ATCC6633, B. subtilis
E. faecalis ATCC 29212 [7] = experiment: MIC and MBC determination; assay type: cell-based; conditions: Enterococcus faecalis, ATCC29212, E. faecalis
S. aureus ATCC 33591 [8] = experiment: MIC and MBC against multidrug-resistant strains; assay type: cell-based; conditions: Staphylococcus aureus, ATCC33591, S. aureus ATCC 33591
Source text: (§2) Norfloxacin was used as a positive control for the multidrug resistance study.
(§3) The experiment was repeating for three-times.

[9] = test system: P. aeruginosa ATCC BAA-2111; experiment: MIC and MBC against multidrug-resistant strains; assay type: cell-based; conditions: Pseudomonas aeruginosa, ATCCBAA2111, P. aeruginosa ATCC BAA-2111
Source text: as §2, §3

S. aureus ATCC 43300 [10] = experiment: MIC and MBC against multidrug-resistant strains; assay type: cell-based; conditions: Staphylococcus aureus, ATCC43300, S. aureus ATCC 43300
Source text: as §2, §3

E. coli ATCC BAA-196 [11] = experiment: MIC and MBC against multidrug-resistant strains; assay type: cell-based; conditions: Escherichia coli, ATCCBAA196, E. coli ATCC BAA-196
Source text: as §2, §3

S. aureus ATCC 33591 [12] = experiment: Inhibition zone against multidrug-resistant bacteria; assay type: cell-based; conditions: MDRB S. aureus ATCC 33591
Source text: as §2
(§4) The antimicrobial activity performed at the bacteriology laboratory, Botany and Microbiology Department, Faculty of Science, Al-Azhar University, Cairo, Egypt. The inhibition zone (IZ) of the tested derivatives expressed as the diameter (mm) according to the agar plate diffusion method.

[13] = test system: P. aeruginosa ATCC BAA-2111; experiment: as above; assay type: cell-based; conditions: MDRB P. aeruginosa ATCC BAA-2111
Source text: as §2, §4

S. aureus ATCC 43300 [14] = experiment: as above; assay type: cell-based; conditions: MDRB S. aureus ATCC 43300
Source text: as §2, §4

E. coli ATCC BAA-196 [15] = experiment: as above; assay type: cell-based; conditions: MDRB E. coli ATCC BAA-196
Source text: as §2, §4

[16] = test system: F. oxysporum (RCMB 008002); experiment: Inhibition zone, paper disk/agar diffusion; assay type: cell-based; conditions: Na = no activity
How it was run: (§5)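 Norfloxacin was included as a positive control. Compounds diffused into seeded agar, and zones of inhibition were recorded as diameter (mm).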

E. faecalis ATCC 29212 [17] = experiment: Inhibition zone, paper disk/agar diffusion; assay type: cell-based; conditions: E. faecalis; Na = no activity
How it was run: as §5

S. typhi ATCC 6539 = experiment: Inhibition zone, paper disk/agar diffusion; assay type: cell-based; conditions: S. typhi; Na = no activity
How it was run: as §5

S. aureus ATCC 29213 [18] = experiment: Inhibition zone, paper disk/agar diffusion; assay type: cell-based; conditions: S. aureus; Na = no activity
How it was run: as §5

C. albicans (ATCC 10231) [19] = experiment: Inhibition zone, paper disk/agar diffusion; assay type: cell-based; conditions: Na = no activity
How it was run: as §5

P. aeruginosa ATCC 27853 [20] = experiment: Inhibition zone, paper disk/agar diffusion; assay type: cell-based; conditions: P. aeruginosa; Na = no activity
How it was run: as §5

B. subtilis ATCC 6633 [21] = experiment: Inhibition zone, paper disk/agar diffusion; assay type: cell-based; conditions: B. subtilis; Na = no activity
How it was run: as §5

S. aureus ATCC 29213 [22] = experiment: MIC and MBC determination; assay type: cell-based; conditions: S. aureus
spleen and thymus = experiment: In vivo immunomodulation: immune organ weight and indexes; parameters: Spleen index: unit not given here; conditions: mice
Source text: Both the spleen and thymus have important antibacterial and fungal immune organ responses, and any change in weight, and indexes can reflect the level of immune regulation. Additionally, the relative spleen and thymus indexes are important indices for nonspecific immunity and potential immunomodulatory compounds that increase the spleen and thymus weight. This increase is due to immune cells’ stimulation in the spleen and thymus. […]

C. albicans (ATCC 10231) [23] = experiment: MIC and MFC determination; assay type: cell-based
neutrophils = experiment: In vitro intracellular killing, nitro blue tetrazolium (NBT) reduction assay; assay type: cell-based
Experimental: One of the broad methods used for determining immune disorders for patients in hospitals is the NBT test to measure their immune responses. The reduction in NBT dye provides information about the phagocytic and intracellular killing functions of neutrophils, which are important for microbiocidal activity. The most promising derivatives (2a, 2b, 2d, 3a, 8, and 11) were evaluated against in vitro intracellular killing activities using a nitro blue tetrazolium (NBT) reduction assay and the obtained results expressed in percentage (%): increasing the percentage led to an improvement in the killing ability of the neutrophils used as innate immunity.
as §1

S. aureus DNA gyrase = S. aureus DNA gyrase (Staphylococcus aureus, UniProt P0A0K8+P20831); experiment: In vitro DNA gyrase supercoiling enzymatic assay; assay type: biochemical
S. aureus DNA gyrase, sequence (P20831 whole entry): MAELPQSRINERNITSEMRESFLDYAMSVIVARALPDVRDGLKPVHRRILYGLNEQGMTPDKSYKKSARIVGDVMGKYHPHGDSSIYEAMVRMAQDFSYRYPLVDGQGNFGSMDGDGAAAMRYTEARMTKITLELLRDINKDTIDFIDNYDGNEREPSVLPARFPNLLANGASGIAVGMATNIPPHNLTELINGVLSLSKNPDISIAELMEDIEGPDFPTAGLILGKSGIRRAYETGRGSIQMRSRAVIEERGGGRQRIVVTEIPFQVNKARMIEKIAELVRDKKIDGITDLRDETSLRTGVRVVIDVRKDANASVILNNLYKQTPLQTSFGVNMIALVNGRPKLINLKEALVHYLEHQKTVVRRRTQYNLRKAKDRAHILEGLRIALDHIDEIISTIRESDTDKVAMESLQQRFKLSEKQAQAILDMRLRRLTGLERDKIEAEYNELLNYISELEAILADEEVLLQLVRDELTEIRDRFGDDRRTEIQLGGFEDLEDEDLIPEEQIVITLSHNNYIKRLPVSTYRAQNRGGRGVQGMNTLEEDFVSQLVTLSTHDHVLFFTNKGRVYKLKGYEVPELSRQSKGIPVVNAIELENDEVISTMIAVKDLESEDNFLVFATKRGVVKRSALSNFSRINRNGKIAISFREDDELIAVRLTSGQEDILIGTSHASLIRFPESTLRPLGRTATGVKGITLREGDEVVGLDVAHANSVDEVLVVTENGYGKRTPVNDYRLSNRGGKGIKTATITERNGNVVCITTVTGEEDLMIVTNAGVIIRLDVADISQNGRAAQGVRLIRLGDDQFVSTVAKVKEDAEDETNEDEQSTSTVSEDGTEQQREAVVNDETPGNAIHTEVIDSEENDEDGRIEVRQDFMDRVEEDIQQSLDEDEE
S. aureus DNA gyrase, sequence (P0A0K8 whole entry): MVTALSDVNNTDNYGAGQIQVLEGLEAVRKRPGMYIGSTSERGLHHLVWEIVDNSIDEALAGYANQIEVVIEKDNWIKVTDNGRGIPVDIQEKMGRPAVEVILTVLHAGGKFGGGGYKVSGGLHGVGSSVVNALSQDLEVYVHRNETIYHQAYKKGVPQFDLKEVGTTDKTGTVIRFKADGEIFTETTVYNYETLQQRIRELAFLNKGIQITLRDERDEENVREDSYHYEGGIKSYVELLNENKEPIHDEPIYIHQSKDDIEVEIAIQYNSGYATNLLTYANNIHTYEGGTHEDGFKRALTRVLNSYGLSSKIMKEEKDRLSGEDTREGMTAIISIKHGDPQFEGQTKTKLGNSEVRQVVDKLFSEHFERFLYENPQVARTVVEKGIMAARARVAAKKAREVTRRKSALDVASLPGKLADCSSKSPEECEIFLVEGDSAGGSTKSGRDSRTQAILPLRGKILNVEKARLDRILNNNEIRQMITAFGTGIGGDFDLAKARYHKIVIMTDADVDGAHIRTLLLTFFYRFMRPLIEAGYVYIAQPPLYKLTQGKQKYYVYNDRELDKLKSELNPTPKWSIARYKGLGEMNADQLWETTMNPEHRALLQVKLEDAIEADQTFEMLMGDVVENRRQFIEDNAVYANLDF

E. coli DHFR (dihydrofolate reductase), sequence (P0ABQ4 whole entry): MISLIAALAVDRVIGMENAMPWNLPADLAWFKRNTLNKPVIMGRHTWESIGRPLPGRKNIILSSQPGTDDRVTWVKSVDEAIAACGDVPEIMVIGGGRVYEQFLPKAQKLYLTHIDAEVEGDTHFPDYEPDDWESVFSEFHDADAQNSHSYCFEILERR

Work on Cc1cc(C)n(-c2ccc(S(=O)(=O)NC(=N)N)cc2)c(=O)c1C#N [Compound 8, N-Carbamimidoyl-4-(3-cyano-4,6-dimethyl-2-oxopyridin-1(2H)-yl) benzenesulfonamide] yielded an IC50 [1] of 12.3 ± 0.73 µM, an MBC (P. aeruginosa ATCC 27853 [2]; read-out: MBC) of 172 ± 1.95 µM (≈ 59.4 µg/mL) and an MIC (P. aeruginosa ATCC 27853 [2]; read-out: MIC) of 90.5 ± 1.07 µM (≈ 31.3 µg/mL). For the same compound, the MBC (E. coli ATCC 25922; read-out: MBC) was 36.2 ± 0.42 µM (≈ 12.5 µg/mL), the MIC (E. coli ATCC 25922; read-out: MIC) was 22.6 ± 0.42 µM (≈ 7.81 µg/mL) and the MFC/MIC [3] was under 2. For the same compound, the MFC ([3]; Fusarium oxysporum, RCMB008002, read-out: MFC) was 136 ± 1.98 µM (≈ 46.9 µg/mL), the MIC ([3]; Fusarium oxysporum, RCMB008002, read-out: MIC) was 90.48 ± 0.84 µM (≈ 31.3 µg/mL) and the MBC ([4]; read-out: MBC) was 19.19 ± 0.14 µM (≈ 6.63 µg/mL). The MIC ([4]; read-out: MIC) was 11.3 ± 0.75 µM (≈ 3.9 µg/mL), the “T cells CD4+” value [5] was 78.70 ± 0.56% and the “T cells CD8+” value [5] was 18.44 ± 0.2%. The MBC (B. subtilis ATCC 6633 [6]; read-out: MBC) was 30.6 ± 1.78 µM (≈ 10.6 µg/mL), the MIC (B. subtilis ATCC 6633 [6]; read-out: MIC) was 16.1 ± 0.54 µM (≈ 5.57 µg/mL) and the MBC (E. faecalis ATCC 29212 [7]; read-out: MBC) was 19.19 ± 0.18 µM (≈ 6.63 µg/mL). For the same compound, the MIC (E. faecalis ATCC 29212 [7]; read-out: MIC) was 11.3 ± 0.52 µM (≈ 3.9 µg/mL), the MBC (S. aureus ATCC 33591 [8]; read-out: MBC) was 46.3 ± 0.58 µM (≈ 16 µg/mL) and the MIC (S. aureus ATCC 33591 [8]; read-out: MIC) was 25.7 ± 0.36 µM (≈ 8.88 µg/mL). For the same compound, the MBC ([9]; read-out: MBC) was 45.2 ± 0.87 µM (≈ 15.6 µg/mL), the MIC ([9]; read-out: MIC) was 22.6 ± 0.98 µM (≈ 7.81 µg/mL) and the MBC (S. aureus ATCC 43300 [10]; read-out: MBC) was 34.36 ± 0.24 µM (≈ 11.9 µg/mL). For the same compound, the MIC (S. aureus ATCC 43300 [10]; read-out: MIC) was 18.1 ± 0.84 µM (≈ 6.25 µg/mL), the MBC (E. coli ATCC BAA-196 [11]; read-out: MBC) was 53.56 ± 0.41 µM (≈ 18.5 µg/mL) and the MIC (E. coli ATCC BAA-196 [11]; read-out: MIC) was 26.8 ± 0.65 µM (≈ 9.25 µg/mL). The “Mean Diameter of Inhibition Zone” value (S. aureus ATCC 33591 [12]) was 15 ± 0.33 mm, the “Mean Diameter of Inhibition Zone” value [13] was 21 ± 0.63 mm and the “Mean Diameter of Inhibition Zone” value (S. aureus ATCC 43300 [14]) was 22 ± 0.5 mm. The “Mean Diameter of Inhibition Zone” value (E. coli ATCC BAA-196 [15]) was 20 ± 0.74 mm, the “Mean Diameter of the Inhibition Zone” value [16] was 20 ± 0.82 mm and the “Mean Diameter of the Inhibition Zone” value (E. faecalis ATCC 29212 [17]) was 25 ± 0.33 mm. For the same compound, the “Mean Diameter of the Inhibition Zone” value (S. typhi ATCC 6539) was 23 ± 0.11 mm, the “Mean Diameter of the Inhibition Zone” value (S. aureus ATCC 29213 [18]) was 26 ± 0.14 mm and the “Mean Diameter of the Inhibition Zone” value (C. albicans (ATCC 10231) [19]) was 24 ± 0.30 mm. For the same compound, the “Mean Diameter of the Inhibition Zone” value (P. aeruginosa ATCC 27853 [20]) was 25 ± 0.85 mm, the “Mean Diameter of the Inhibition Zone” value (B. subtilis ATCC 6633 [21]) was 27 ± 0.50 mm and the MBC (S. aureus ATCC 29213 [22]) was 10.71 ± 0.36 µM (≈ 3.7 µg/mL). For the same compound, the MIC (S. aureus ATCC 29213 [22]) was 5.64 ± 0.58 µM (≈ 1.95 µg/mL), the MBC (S. aureus ATCC 29213 [22]; Staphylococcus aureus, ATCC29213, read-out: MBC) was 10.7 µM (≈ 3.7 µg/mL) and the MIC (S. aureus ATCC 29213 [22]; Staphylococcus aureus, ATCC29213, read-out: MIC) was 5.64 µM (≈ 1.95 µg/mL). For the same compound, the Spleen index (spleen and thymus) was 0.010 ± 0.00, the Spleen weight (spleen and thymus) was 200 ± 0.025 mg and the Thymus index (spleen and thymus) was 0.537 ± 0.14 mg/g. The Thymus weight (spleen and thymus) was 13.42 ± 0.46 mg, the MFC/MIC (C. albicans (ATCC 10231) [23]) was under 2 and the MFC (C. albicans (ATCC 10231) [23]; Candida albicans, ATCC10231, read-out: MFC) was 81.4 ± 0.84 µM (≈ 28.1 µg/mL). The MIC (C. albicans (ATCC 10231) [23]; Candida albicans, ATCC10231, read-out: MIC) was 45.2 ± 0.54 µM (≈ 15.6 µg/mL), the “Intracellular Killing Activity” value (neutrophils) was 136.5 ± 0.3% and the IC50 (S. aureus DNA gyrase) was 39.1 ± 1.72 µM.
